Common to all, as to format: cell-based
Test [1] can be described thus: Effect on proliferation of cells, Cell Titer-Glo, 72 hours. The conditions noted are these: Mus musculus, BaF3 cells. As for the experimental part:
The compounds of the present invention were tested for their effect on growth of cancer cells (Table 2), to further evaluate the compounds herein for their inhibitory effect on proliferation of cancer cells and their selectivity in inhibiting proliferation of cancer cells. […]
(§1) In the example, solutions of the test compound in DMSO at different concentrations (0.000508 μM, 0.00152 μM, 0.00457 μM, 0.0137 μM, 0.0411 μM, 0.123 μM, 0.370 μM, 1.11 μM, 3.33 μM, 10 μM) was added to the above cells respectively. The cells were incubated for 72 hours. The number of viable cells was detected with a Cell Titer-Glo (Promega, USA) Cell Viability Assay Kit by quantifying the ATP in viable cells. The values of GI50 (unit) of the compounds of the present invention against each of the test cells were determined.
A general note: ATP-based viability assays read luminescence as a measure of living cells.

The subject of test [2] is human acute leukemia cell NB4 (expressing KRAS-A18D mutant kinase). The test can be described thus: Effect on proliferation of cancer cells, Cell Titer-Glo, 72 hours. The conditions noted are these: NB-4. As for the experimental part: (§2) The compounds of the present invention were tested for their effect on growth of cancer cells (Table 2), to further evaluate the compounds herein for their inhibitory effect on proliferation of cancer cells and their selectivity in inhibiting proliferation of cancer cells.
(§3) The above-mentioned BaF3-FL-BRAF-V600E mutant cell line was constructed by the method as follows. The sequence of human full-length BRAF-V600E mutant kinase region was amplified by PCR, inserted into a MSCV-Puro vector (purchased from Clontech), and stably transfected into mouse BaF3 cells by the retroviral method, and the growth factor IL-3 was removed. Eventually, a cell line dependent on a full-length BRAF-V600E protein having various mutation transferred was obtained.
as §1

Test [3] concerns human acute leukemia cell OCI-AML-3 (expressing NRAS-Q61L mutant kinase). The description is as above. The conditions noted are these: OCI-AML-3 cells. As for the experimental part: as §2, §3, §1
Test [4] has as its system mouse BaF3-FL-BRAF-V600E (stably expressing full-length BRAF-V600E mutant kinase). The test is described as above. The method, then:
as §2
(§4) The cells were incubated for 72 hours. The number of viable cells was detected with a Cell Titer-Glo (Promega, USA) Cell Viability Assay Kit by quantifying the ATP in viable cells. The values of GI50 (unit) of the compounds of the present invention against each of the test cells were determined.

Test [5] relates to colorectal cancer cell COLO205 (expressing BRAF-V600E mutant kinase). The description is as above. The conditions noted are these: Homo sapiens, COLO 205. The method, then:
as §2, §4

Test [6] has as its system melanoma cell A375 (expressing BRAF-V600E mutant kinase). The test is described as above. The settings on record: Homo sapiens, A-375. The method, then: as §2, §4

The values that follow come from US12115152B2, “Pan-RAF kinase inhibitor and use thereof” (HEFEI INSTITUTES OF PHYSICAL SCIENCE, CHINESE ACADEMY OF …, priority 2019, dated 2024).

By GI50 is commonly meant the concentration giving 50% growth inhibition. A lower GI50 goes with greater sensitivity of the cells.

On to `Cc1ccc(NC(=O)c2cccc(C(F)(F)F)c2)cc1-n1cc(-c2cnccc2OCCCO)cn1` [Example 162, N-(3-(4-(4-(3-hydoxypropoxy)pyrid-3-yl)-1H-pyrazol-1-yl)-4-methylphenyl)-3-(trifluoromethyl)benzamide], for which the GI50 in test [1] worked out at 5000 nM; in test [2], 61 nM; in test [3], 11 nM; in test [4], 3.9 nM; in test [5], 39 nM; in test [6], 32 nM.

Turning to `Cc1ccc(NC(=O)c2cccc(C(C)(C)C#N)c2)cc1-n1cc(-c2cnccc2OCCCCO)cn1` [Example 165, 3-(2-cyanoprop-2-yl)-N-(3-(4-(4-(4-hydroxybutoxy)pyrid-3-yl)-1H-pyrazol-1-yl)-4-methylphenyl)benzamide], the 50% growth inhibitory concentration (GI50) is 1800 nM in test [1]; 75 nM in test [2]; 14 nM in test [3]; under 0.3 nM in test [4]; 190 nM in test [5]; 40 nM in test [6].

On to `Cc1ccc(NC(=O)c2cccc(C(F)(F)F)c2)cc1-n1cc(-c2cnccc2OCCCCO)cn1` [Example 166, N-(3-(4-(4-(4-hydroxybutoxy)pyrid-3-yl)-1H-pyrazol-1-yl)-4-methylphenyl)-3-(trifluoromethyl)benzamide], for which the GI50 was 2600 nM in test [1]; 69 nM in test [2]; 19 nM in test [3]; 1 nM in test [4]; 94 nM in test [5]; 77 nM in test [6].

In the case of `Cc1ccc(NC(=O)c2cccc(C(C)(C)C#N)c2)cc1-n1cc(-c2cncc(N3CCNCC3)c2)cn1` [Example 163, 3-(2-cyanoprop-2-yl)-N-(4-methyl-3-(4-(5-(piperizan-1-yl)pyrid-3-yl)1H-pyrazol-1-yl)phenyl)benzamide], the 50% growth inhibitory concentration (GI50) is 1600 nM in test [1]; 44 nM in test [2]; 10 nM in test [3]; 18 nM in test [4]; 39 nM in test [5]; 160 nM in test [6].
